The subject of the test is Hepatitis C virus. The test can be described thus: Antiviral activity against HCV infected in human HuH7 cells assessed as inhibition of viral replication after 2 days by luciferase reporter gene assay. Type of test: functional, organism-based, Hepacivirus hominis. Particulars: Huh-7, 48 h.

In ChEMBL document CHEMBL3124746, “Triazine Analogues as NS5B Inhibitors for the Treatment of HCV” (ACS Med Chem Lett, 2014) one finds EC50 data, which are given here for two compounds.

What is called EC50 is the concentration needed to bring the measured effect to its halfway point. In the case of `CNC(=O)C(=O)NC[C@@H](NC(=O)c1ccc(Nc2nc(NC3(c4ccc(Cl)cc4)CC3)nc(OCC(F)(F)F)n2)cc1)C(=O)O`, the EC50 was 0.69 nM.
With `COC(=O)[C@@H](CCNC(=O)C(=O)Nc1cccc(OC(F)(F)F)c1)NC(=O)c1ccc(Nc2nc(NC3(c4ccc(Cl)cc4)CC3)nc(OCC(F)(F)F)n2)cc1`, the EC50 stood at 0.16 nM.
